Experimental findings from ChEMBL document CHEMBL1821719, “2,7-disubstituted-pyrrolo[2,1-f][1,2,4]triazines: new variant of an old template and application to the discovery of anaplastic lymphoma kinase (ALK) inhibitors with in vivo antitumor activity” (J Med Chem, 2011) are described below.

Molecules are shown by their SMILES. Where only a bound is given, the exact number is not on record here.

The target of one series is Cytochrome P450 2C19 (Homo sapiens, UniProt P33261). As to the kind of experiment: Inhibition of CYP2C19. It counts as ADME.
Another series addresses Cytochrome P450 2C9 (Homo sapiens, UniProt P11712). As to the kind of experiment: Inhibition of CYP2C9. Type of series: ADME.
The target in another series is Cytochrome P450 3A4 (Homo sapiens, UniProt P08684). As to the kind of experiment: Inhibition of CYP3A4. Type of series: ADME.
The target in a further series is Insulin receptor (Homo sapiens, UniProt P06213). As to the kind of experiment: Inhibition of IR.
Series [1] in a line: Half-life in mouse liver microsomes. It counts as ADME, Microsome. (In general: Microsomes from liver hold many membrane-bound enzymes, among them those of drug oxidation.)
A short description of series [2]: Half-life in human liver microsomes. Type of series: ADME, Microsome.
Series [3] is described as follows: Half-life in rat liver microsomes. Type of series: ADME, Microsome.
The target in another series is Cytochrome P450 2D6 (Homo sapiens, UniProt P10635). As to the kind of experiment: Inhibition of CYP2D6. Type of series: ADME.
Series [4] addresses ALK tyrosine kinase receptor (Homo sapiens, UniProt Q9UM73). As to the kind of experiment: Inhibition of human recombinant ALK assessed as phosphorylated product using PLC-gamma/GST substrate by modified ELISA method.
The target in another series is T1, Cytochrome P450 1A2 (Homo sapiens, UniProt P05177).
T1 sequence (P05177 whole entry): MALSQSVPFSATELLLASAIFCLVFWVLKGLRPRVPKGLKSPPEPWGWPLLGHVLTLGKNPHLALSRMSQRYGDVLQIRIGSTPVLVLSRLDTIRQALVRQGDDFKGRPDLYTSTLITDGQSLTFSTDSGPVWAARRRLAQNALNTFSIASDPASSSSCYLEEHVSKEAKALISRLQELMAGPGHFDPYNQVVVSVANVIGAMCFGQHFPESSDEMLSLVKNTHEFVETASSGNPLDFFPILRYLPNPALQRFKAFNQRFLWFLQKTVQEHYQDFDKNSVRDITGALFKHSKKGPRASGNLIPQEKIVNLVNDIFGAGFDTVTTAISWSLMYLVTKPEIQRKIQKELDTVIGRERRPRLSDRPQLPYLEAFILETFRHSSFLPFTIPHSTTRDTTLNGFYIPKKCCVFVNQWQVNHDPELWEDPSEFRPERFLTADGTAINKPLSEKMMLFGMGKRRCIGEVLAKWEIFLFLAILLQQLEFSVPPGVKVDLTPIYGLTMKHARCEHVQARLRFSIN
As to the kind of experiment: Inhibition of CYP1A2. It counts as ADME.

Series [5] is described as follows: Half-life in iv dosed Sprague-Dawley rat. It counts as ADME, organism-based. Conditions: in vivo.
Series [6] can be described thus: Oral bioavailability in Sprague-Dawley rat. Conditions: in vivo. Type of series: ADME, organism-based.
Series [7] in a line: Clearance in iv dosed Sprague-Dawley rat. Type of series: ADME, organism-based. Conditions: in vivo.

Sequence of ALK tyrosine kinase receptor (Q9UM73 whole entry): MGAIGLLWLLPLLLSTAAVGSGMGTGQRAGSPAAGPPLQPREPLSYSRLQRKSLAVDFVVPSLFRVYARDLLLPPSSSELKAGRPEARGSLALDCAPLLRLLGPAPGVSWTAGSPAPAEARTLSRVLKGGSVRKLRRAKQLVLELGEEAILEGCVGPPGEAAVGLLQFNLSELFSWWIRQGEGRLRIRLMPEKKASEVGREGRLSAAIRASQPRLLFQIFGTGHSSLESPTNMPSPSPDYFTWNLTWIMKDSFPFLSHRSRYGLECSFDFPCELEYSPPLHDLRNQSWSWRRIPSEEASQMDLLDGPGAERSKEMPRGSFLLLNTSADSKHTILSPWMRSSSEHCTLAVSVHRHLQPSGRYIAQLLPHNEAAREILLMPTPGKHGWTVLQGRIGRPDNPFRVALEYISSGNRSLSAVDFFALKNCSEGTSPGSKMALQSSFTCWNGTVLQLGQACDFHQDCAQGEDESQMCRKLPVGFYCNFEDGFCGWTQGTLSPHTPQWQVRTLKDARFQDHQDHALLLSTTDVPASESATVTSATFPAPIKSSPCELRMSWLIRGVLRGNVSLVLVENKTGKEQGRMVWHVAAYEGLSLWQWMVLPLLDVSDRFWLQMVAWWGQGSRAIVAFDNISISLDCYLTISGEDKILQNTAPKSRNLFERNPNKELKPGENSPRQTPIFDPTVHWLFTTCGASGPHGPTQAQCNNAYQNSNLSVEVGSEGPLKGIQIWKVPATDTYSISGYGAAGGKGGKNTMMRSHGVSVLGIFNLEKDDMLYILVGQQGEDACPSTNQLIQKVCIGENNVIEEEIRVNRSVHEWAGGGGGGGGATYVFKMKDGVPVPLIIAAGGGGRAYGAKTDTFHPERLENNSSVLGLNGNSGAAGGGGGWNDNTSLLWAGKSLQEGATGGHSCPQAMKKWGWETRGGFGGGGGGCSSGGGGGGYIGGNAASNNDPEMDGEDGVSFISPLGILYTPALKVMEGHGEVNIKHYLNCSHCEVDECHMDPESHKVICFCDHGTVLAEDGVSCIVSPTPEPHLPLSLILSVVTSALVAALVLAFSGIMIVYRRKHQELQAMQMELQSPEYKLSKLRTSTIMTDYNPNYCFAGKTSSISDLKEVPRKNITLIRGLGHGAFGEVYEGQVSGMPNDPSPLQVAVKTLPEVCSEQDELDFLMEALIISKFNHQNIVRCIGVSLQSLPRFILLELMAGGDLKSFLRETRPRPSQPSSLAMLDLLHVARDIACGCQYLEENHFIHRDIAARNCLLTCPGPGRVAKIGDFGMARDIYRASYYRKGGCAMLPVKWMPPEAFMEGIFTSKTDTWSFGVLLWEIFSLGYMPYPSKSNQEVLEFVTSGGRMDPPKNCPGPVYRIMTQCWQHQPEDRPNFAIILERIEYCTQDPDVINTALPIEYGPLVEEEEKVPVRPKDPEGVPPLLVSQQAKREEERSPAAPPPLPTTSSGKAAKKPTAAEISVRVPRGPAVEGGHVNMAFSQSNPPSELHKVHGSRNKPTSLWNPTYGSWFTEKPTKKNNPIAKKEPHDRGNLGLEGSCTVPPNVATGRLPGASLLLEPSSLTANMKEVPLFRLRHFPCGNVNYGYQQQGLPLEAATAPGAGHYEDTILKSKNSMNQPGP
Sequence of Insulin receptor (P06213 28-758 limits assumed): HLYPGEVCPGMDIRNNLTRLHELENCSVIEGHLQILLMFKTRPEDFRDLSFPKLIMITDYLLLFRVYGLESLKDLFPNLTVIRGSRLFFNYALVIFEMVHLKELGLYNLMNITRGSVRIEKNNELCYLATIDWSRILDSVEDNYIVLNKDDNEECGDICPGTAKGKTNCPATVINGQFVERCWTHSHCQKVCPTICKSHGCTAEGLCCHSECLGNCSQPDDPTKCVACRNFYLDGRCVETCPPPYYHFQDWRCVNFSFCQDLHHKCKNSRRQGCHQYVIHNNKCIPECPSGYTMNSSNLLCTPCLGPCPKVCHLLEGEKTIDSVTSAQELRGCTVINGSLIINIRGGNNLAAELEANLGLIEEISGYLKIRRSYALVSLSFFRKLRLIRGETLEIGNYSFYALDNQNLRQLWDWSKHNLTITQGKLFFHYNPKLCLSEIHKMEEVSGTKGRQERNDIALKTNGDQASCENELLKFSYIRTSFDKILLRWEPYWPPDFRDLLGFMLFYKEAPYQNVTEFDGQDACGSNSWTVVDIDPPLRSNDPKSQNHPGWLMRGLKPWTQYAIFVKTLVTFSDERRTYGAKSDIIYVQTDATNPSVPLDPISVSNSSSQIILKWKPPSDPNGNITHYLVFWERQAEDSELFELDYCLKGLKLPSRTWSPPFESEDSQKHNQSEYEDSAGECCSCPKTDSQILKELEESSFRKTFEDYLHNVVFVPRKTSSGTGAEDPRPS
Sequence of Insulin receptor (P06213 763-1382 limits assumed): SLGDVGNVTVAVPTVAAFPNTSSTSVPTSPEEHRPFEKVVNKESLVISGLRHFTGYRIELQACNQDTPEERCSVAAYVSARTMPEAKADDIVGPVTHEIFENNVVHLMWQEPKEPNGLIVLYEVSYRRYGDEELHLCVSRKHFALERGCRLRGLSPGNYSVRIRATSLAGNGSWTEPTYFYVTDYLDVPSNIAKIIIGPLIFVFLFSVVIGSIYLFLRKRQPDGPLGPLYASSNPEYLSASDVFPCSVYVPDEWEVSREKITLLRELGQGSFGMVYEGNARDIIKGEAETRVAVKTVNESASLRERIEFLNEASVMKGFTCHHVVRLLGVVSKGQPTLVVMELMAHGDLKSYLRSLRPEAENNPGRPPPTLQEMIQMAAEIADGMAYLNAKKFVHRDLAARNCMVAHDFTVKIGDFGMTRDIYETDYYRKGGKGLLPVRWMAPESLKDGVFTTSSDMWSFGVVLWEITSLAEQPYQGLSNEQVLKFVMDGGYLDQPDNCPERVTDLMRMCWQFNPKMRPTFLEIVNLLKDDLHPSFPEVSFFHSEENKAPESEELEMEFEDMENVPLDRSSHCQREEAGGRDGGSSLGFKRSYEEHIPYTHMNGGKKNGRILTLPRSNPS
Sequence of Cytochrome P450 2D6 (P10635 whole entry): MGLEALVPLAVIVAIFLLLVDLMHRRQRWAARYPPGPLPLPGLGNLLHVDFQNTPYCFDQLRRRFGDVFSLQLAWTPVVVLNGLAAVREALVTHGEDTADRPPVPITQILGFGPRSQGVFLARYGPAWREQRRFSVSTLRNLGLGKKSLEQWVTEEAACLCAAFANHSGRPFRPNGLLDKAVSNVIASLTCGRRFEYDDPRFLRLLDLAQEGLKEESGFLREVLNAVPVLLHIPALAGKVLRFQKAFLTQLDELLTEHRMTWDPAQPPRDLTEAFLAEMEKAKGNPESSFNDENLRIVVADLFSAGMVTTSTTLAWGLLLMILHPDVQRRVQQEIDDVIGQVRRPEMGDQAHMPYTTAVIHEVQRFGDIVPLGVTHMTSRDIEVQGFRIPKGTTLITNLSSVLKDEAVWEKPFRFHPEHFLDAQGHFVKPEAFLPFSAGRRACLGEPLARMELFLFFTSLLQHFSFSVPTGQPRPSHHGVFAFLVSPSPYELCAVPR
Sequence of Cytochrome P450 2C9 (P11712 whole entry): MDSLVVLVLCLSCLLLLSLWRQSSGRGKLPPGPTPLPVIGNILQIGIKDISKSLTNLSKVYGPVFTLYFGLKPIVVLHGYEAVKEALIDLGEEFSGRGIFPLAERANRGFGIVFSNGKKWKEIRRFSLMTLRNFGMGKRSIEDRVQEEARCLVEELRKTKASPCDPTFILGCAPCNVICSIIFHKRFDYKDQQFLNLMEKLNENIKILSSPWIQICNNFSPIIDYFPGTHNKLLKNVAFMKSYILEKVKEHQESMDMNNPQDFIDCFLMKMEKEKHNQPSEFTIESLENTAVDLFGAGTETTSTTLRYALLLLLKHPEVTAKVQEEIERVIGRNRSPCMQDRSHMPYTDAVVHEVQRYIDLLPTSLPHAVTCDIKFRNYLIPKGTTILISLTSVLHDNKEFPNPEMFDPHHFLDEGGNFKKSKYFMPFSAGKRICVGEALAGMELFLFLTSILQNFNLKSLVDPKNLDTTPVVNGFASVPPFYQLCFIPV
Sequence of Cytochrome P450 3A4 (P08684 whole entry): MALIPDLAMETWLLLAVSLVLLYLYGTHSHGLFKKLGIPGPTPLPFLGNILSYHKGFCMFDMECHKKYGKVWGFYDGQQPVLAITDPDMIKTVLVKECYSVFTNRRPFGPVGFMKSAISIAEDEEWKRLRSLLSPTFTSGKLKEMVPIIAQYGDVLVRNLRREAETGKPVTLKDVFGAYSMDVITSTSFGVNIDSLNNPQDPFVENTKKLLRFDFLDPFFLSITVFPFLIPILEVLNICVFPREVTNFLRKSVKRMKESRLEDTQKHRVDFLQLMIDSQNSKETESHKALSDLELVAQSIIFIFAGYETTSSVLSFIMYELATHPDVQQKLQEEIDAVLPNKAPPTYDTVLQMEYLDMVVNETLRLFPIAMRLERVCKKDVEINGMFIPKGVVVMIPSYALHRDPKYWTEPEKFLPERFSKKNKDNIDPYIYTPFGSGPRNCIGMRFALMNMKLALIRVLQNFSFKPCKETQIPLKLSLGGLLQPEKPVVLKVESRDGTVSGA
Sequence of Cytochrome P450 2C19 (P33261 whole entry): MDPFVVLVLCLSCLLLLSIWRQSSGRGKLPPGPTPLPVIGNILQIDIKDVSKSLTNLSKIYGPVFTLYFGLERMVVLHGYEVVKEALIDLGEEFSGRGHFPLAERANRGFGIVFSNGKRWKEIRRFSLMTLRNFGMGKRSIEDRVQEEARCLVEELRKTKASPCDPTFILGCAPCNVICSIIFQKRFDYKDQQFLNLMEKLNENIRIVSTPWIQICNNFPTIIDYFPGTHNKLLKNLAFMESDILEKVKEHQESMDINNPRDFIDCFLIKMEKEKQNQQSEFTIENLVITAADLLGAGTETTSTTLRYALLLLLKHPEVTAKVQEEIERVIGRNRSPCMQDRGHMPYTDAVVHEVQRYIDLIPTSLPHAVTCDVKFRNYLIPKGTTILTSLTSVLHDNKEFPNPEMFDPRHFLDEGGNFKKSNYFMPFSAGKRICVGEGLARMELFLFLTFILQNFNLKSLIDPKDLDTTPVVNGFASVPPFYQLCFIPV

As for `CN1CCN(c2ccc(Nc3ncc4ccc(-c5ccccc5N(C)S(C)(=O)=O)n4n3)cc2)CC1`, the 50% inhibitory concentration (IC50) is above 30000 nM against Cytochrome P450 2C19; above 30000 nM against Cytochrome P450 2C9; 14600 nM against Cytochrome P450 3A4; 366 nM on Insulin receptor; above 30000 nM on Cytochrome P450 2D6; 7 nM in series [4]. The IC50 against Cytochrome P450 1A2 was above 30000 nM. The figures for the half-life in [1], in series [2] and in [3] were 30 min, 40 min and 21 min, respectively.
As to `COc1cc(Nc2ncc3ccc(-c4ccccc4)n3n2)cc(OC)c1OC`, the IC50 at Insulin receptor worked out at 295 nM; in series [4] it was 212 nM.
As to `c1ccc(-c2ccc3cnc(Nc4ccc(N5CCOCC5)cc4)nn23)cc1`, the IC50 was 194 nM against Insulin receptor and above 2000 nM in series [4].
The like results for `CN1CCN(c2ccc(Nc3ncc4ccc(-c5ccccc5)n4n3)cc2)CC1` were, in that order, 35 nM and 48 nM.
On to `COCCN1CCc2ccc(Nc3ncc4ccc(-c5ccccc5)n4n3)cc2CC1`, for which the IC50 worked out at 19 nM against Insulin receptor and 38 nM in series [4].
Consider `COc1ccccc1-c1ccc2cnc(Nc3ccc(N4CCN(C)CC4)cc3)nn12`, for which the IC50 was above 30000 nM at Cytochrome P450 2C19; above 30000 nM at Cytochrome P450 2C9; 9400 nM against Cytochrome P450 3A4; 123 nM at Insulin receptor; above 30000 nM on Cytochrome P450 2D6; 20 nM in series [4]. This compound yielded an IC50 on Cytochrome P450 1A2 above 30000 nM. Moreover, the half-life in series [5] is 30 min; in series [1], 8 min; in series [2], 40 min; in series [3] it was 14 min. In series [6], this compound displayed a bioavailability of 4%. The same compound returned a clearance in series [7] of 60 mL/min/kg.
As to `CN1CCN(c2ccc(Nc3ncc4ccc(-c5ccccc5C(N)=O)n4n3)cc2)CC1`, the IC50 against Insulin receptor came to 326 nM; in [4], 726 nM.
The like results for `CN1CCN(c2ccc(Nc3ncc4ccc(-c5ccccc5S(C)(=O)=O)n4n3)cc2)CC1` were, in that order, above 2000 nM and 883 nM.

By IC50 is commonly meant the point on the concentration scale where inhibition reaches its midpoint. The half-life is how long it takes for the measured level to halve. Low values mean fast loss, high ones slow loss. The bioavailability is the share of a dose that reaches the circulation, judged against a reference dose that is usually intravenous. By clearance is commonly meant the rate of elimination divided by the concentration. A low value points to a low capacity for elimination.
